Measurements from ChEMBL document CHEMBL1201862, “PubChem BioAssay data set” (2004).
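1) Cells in 96-well plates. 2) Compound, 48 h, 5 concentrations. 3) Linear interpolation between surrounding doses. 4) Unreached endpoint = highest concentration. GI50 marks 50% less growth.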 The source made the active and inactive calls. No stated cut-off is given here; in the data, active = GI50 up to about 1.1 µM and inactive = higher.

Legend:
Test in all cases: NCI anticancer screen, dose series, 48 h
NCI-H522 = system: NCI-H522
MDA-MB-231 = system: MDA-MB-231
MOLT-4 = system: MOLT-4
EKVX = system: EKVX
786-0 = system: 786-0
UO-31 = system: UO-31
K562 = system: K562
LOX IMVI = system: LOX IMVI
MDA-N = system: MDA-N
Hs-578T = system: Hs-578T
COLO 205 = system: COLO 205
SW-620 = system: SW-620
SF-268 = system: SF-268
SK-OV-3 = system: SK-OV-3
HOP-92 = system: HOP-92
Malme-3M = system: Malme-3M
SF-295 = system: SF-295
TK-10 = system: TK-10
SK-MEL-28 = system: SK-MEL-28
U-251 = system: U-251
A498 = system: A498
HCT-116 = system: HCT-116
RXF 393 = system: RXF 393
HT-29 = system: HT-29
NCI-H23 = system: NCI-H23
BT-549 = system: BT-549
NCI-H460 = system: NCI-H460
KM12 = system: KM12
HCT-15 = system: HCT-15
PC-3 = system: PC-3
OVCAR-5 = system: OVCAR-5
MCF7 = system: MCF7
NCI/ADR-RES = system: NCI/ADR-RES
ACHN = system: ACHN
T47D = system: T47D
CCRF-CEM = system: CCRF-CEM
OVCAR-3 = system: OVCAR-3
MDA-MB-435 = system: MDA-MB-435
SNB-19 = system: SNB-19
OVCAR-8 = system: OVCAR-8
SR = system: SR
HL-60 = system: HL-60
M14 = system: M14
SK-MEL-5 = system: SK-MEL-5
CAKI-1 = system: CAKI-1
OVCAR-4 = system: OVCAR-4
SK-MEL-2 = system: SK-MEL-2
A549 = system: A549
HOP-62 = system: HOP-62
UACC-257 = system: UACC-257
RPMI-8226 = system: RPMI-8226
SNB-75 = system: SNB-75
HCC 2998 = system: HCC 2998
SN12C = system: SN12C
DU-145 = system: DU-145
UACC-62 = system: UACC-62

For `Cc1cc(-c2nc3cc(F)c(F)cc3s2)ccc1N`, the GI50 (NCI-H522) was 48.6 µM (inactive), the GI50 (MDA-MB-231) was > 100 µM (inactive) and the GI50 (MOLT-4) was > 49.9 µM (inactive). The GI50 (EKVX) was > 79.8 µM (inactive), the GI50 (786-0) was > 65.2 µM (inactive) and the GI50 (UO-31) was > 59.4 µM (inactive). The GI50 (K562) was > 42.5 µM (inactive), the GI50 (LOX IMVI) was > 82.4 µM (inactive) and the GI50 (MDA-N) was > 56.6 µM (inactive). For the same compound, the GI50 (Hs-578T) was 61.1 µM (inactive), the GI50 (COLO 205) was 23.7 µM (inactive) and the GI50 (SW-620) was > 60.5 µM (inactive). For the same compound, the GI50 (SF-268) was > 100 µM (inactive), the GI50 (SK-OV-3) was > 64 µM (inactive) and the GI50 (HOP-92) was > 100 µM (inactive). The GI50 (Malme-3M) was > 100 µM (inactive), the GI50 (SF-295) was > 48.2 µM (inactive) and the GI50 (TK-10) was 0.0312 µM (active). For the same compound, the GI50 (SK-MEL-28) was > 100 µM (inactive), the GI50 (U-251) was > 45.4 µM (inactive) and the GI50 (A498) was > 100 µM (inactive). For the same compound, the GI50 (HCT-116) was > 55.6 µM (inactive), the GI50 (RXF 393) was 58.3 µM (inactive) and the GI50 (HT-29) was > 61.1 µM (inactive). For the same compound, the GI50 (NCI-H23) was > 70.6 µM (inactive), the GI50 (BT-549) was > 100 µM (inactive) and the GI50 (NCI-H460) was > 100 µM (inactive). For the same compound, the GI50 (KM12) was > 69.2 µM (inactive), the GI50 (HCT-15) was greater than 61.4 µM and the GI50 (PC-3) was > 52.5 µM (inactive). For the same compound, the GI50 (OVCAR-5) was > 53.8 µM (inactive), the GI50 (MCF7) was < 0.0123 µM (active) and the GI50 (NCI/ADR-RES) was > 59.3 µM (inactive). The GI50 (ACHN) was > 79.1 µM (inactive), the GI50 (T47D) was < 0.015 µM (active) and the GI50 (CCRF-CEM) was > 35.6 µM (inactive). For the same compound, the GI50 (OVCAR-3) was > 50.5 µM (inactive), the GI50 (MDA-MB-435) was > 55.3 µM (inactive) and the GI50 (SNB-19) was > 59.2 µM (inactive). The GI50 (OVCAR-8) was > 45.4 µM (inactive), the GI50 (SR) was > 100 µM (inactive) and the GI50 (HL-60) was > 41.6 µM (inactive). The GI50 (M14) was > 55.2 µM (inactive), the GI50 (SK-MEL-5) was 64 µM (inactive) and the GI50 (CAKI-1) was > 45 µM (inactive). For the same compound, the GI50 (OVCAR-4) was 60.7 µM (inactive), the GI50 (SK-MEL-2) was > 58.5 µM (inactive) and the GI50 (A549) was > 55.5 µM (inactive). The GI50 (HOP-62) was 39.7 µM (inactive), the GI50 (UACC-257) was > 73.1 µM (inactive) and the GI50 (RPMI-8226) was > 63.4 µM (inactive). The GI50 (SNB-75) was 51.9 µM (inactive), the GI50 (HCC 2998) was > 42.4 µM (inactive) and the GI50 (SN12C) was > 74.6 µM (inactive). The GI50 (DU-145) was > 67.6 µM (inactive) and the GI50 (UACC-62) was > 100 µM (inactive).
